Test results as given in PubChem BioAssay (NCI).
Several values for one entry are separate records, joined by “and”; a condition that tells them apart may be missing. Equal values may be shown once.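 Five concentrations, 48 hours, 96-well plates. GI50 marks 50% less growth. At the TGI there is no net growth.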

What was measured:
Test in all cases: growth of human tumour cells (NCI), 48 h
SNB-75 CNS = test system: SNB-75 CNS
HOP-62 NSCLC = test system: HOP-62 NSCLC
HCT-116 colon = test system: HCT-116 colon
NCI-H23 lung = test system: NCI-H23 lung
K-562 leukemia = test system: K-562 leukemia
UO-31 renal = test system: UO-31 renal
OVCAR-3 ovarian = test system: OVCAR-3 ovarian
UACC-257 melanoma = test system: UACC-257 melanoma
NCI-H522 lung = test system: NCI-H522 lung
HS 578T breast = test system: HS 578T breast

| SMILES | GI50 (SNB-75 CNS) | TGI (SNB-75 CNS) | GI50 (HOP-62 NSCLC) | TGI (HOP-62 NSCLC) | TGI (HCT-116 colon) | GI50 (NCI-H23 lung) | TGI (NCI-H23 lung) | GI50 (K-562 leukemia) | TGI (K-562 leukemia) | GI50 (UO-31 renal) | TGI (UO-31 renal) | GI50 (OVCAR-3 ovarian) | TGI (OVCAR-3 ovarian) | GI50 (UACC-257 melanoma) | TGI (UACC-257 melanoma) | GI50 (NCI-H522 lung) | TGI (NCI-H522 lung) | GI50 (HS 578T breast) | TGI (HS 578T breast) | GI50 (HCT-116 colon) |
| --- | --- | --- | --- | --- | --- | --- | --- | --- | --- | --- | --- | --- | --- | --- | --- | --- | --- | --- | --- | --- |
| CCC1CCCCN1C(=S)N/N=C(\C)c1ccccn1 (stereo not given) | 479 nM | 2.12 µM | 50.4 nM | 1.96 µM | 3.49 µM | 36.5 nM | 5.01 µM | 23.8 nM | > 100 µM | 134 nM | 1.82 µM | < 13.3 nM | 1.16 µM | < 21.5 nM | 1.68 µM | 91.2 nM | 1.82 µM | 1060 nM | 14.5 µM |  |
| CNC(=O)c1cncc(/C=C/c2c(C)cccc2C)c1 | 4830 nM | > 18.2 µM | > 25000 nM | > 25 µM | > 25 µM | > 25000 nM | > 25 µM | > 22300 nM | > 25 µM | 9290 nM | > 25 µM | > 25000 nM | > 25 µM | > 25000 nM | > 25 µM | > 17800 nM | > 25 µM | 7190 nM | 24.2 µM | > 25 µM |
| O=C1c2cccc3cc([N+](=O)[O-])cc(c23)C(=O)N1CCN1CCCC1 | 388 nM | 2.27 µM | 312 nM | 1.7 µM | > 100 µM | 466 nM | 4.3 µM | 534 nM |  | 281 nM | 3.17 µM | 1740 nM | 5.71 µM |  |  | 495 nM | 2.88 µM | 1080 nM | 5.36 µM | 0.441 µM |
| COc1cc2c(Nc3ccc(Br)cc3F)ncnc2cc1OCC1CCN(C)CC1 | 737 nM and 1130 nM | 5.79 µM and > 10 µM | 3240 nM and 5810 nM | 14.6 µM and > 10 µM | 15.1 µM and > 10 µM | 9570 nM and > 10000 nM | 21.9 µM and > 10 µM | 436 nM and 651 nM | 11.8 µM and > 10 µM | 573 nM and 479 nM | 2.5 µM and 5.78 µM | 1650 nM and 2580 nM | 14.2 µM and > 10 µM | 1850 nM and 1730 nM | 3.44 µM and 3.6 µM | 2000 nM and 1280 nM | 7.31 µM and > 10 µM | 2260 nM and 2480 nM | 8.6 µM and > 10 µM | 3.8 µM and 4.32 µM |
| COc1cccc(-c2nc(-c3ccc(NC(=O)c4ccccc4)cc3)[nH]c2-c2ccnc(Br)c2)c1 | 815 nM | > 100 µM | 2820 nM | > 100 µM | > 100 µM | 2820 nM | > 100 µM | 1670 nM | > 100 µM | 2930 nM | > 100 µM | 4480 nM | > 100 µM | 5340 nM | > 100 µM | 3170 nM | > 100 µM | 339 nM | 1.75 µM | 3.29 µM |
| CN(C)c1ccc2cc(-c3cc4c(oc3=O)-c3ccccc3OC4O)c(=O)oc2c1 (stereo not given) | 5960 nM | 24 µM | 3880 nM | 11.6 µM | > 25 µM | 1410 nM | 13.4 µM | 5200 nM | > 25 µM | 5090 nM | 12.7 µM | 5900 nM | > 25 µM | 2790 nM | 10.6 µM | 3600 nM | 10.2 µM | 7140 nM | 19.6 µM | 1.44 µM |
| CCOC(=O)C#Cc1ccc([N+](=O)[O-])cc1 |  | 7.88 µM |  | 11.3 µM | 3.03 µM |  | 7.55 µM |  | 11.9 µM |  | 3.15 µM |  | 3.13 µM |  | 10.8 µM |  | 3.09 µM |  | 21.8 µM |  |
| COc1ccc(C(=O)C(Br)C(Br)C(=O)O)cc1 (stereo not given) |  | > 100 µM |  | > 100 µM | 44.9 µM |  | > 100 µM |  | 82.9 µM |  |  |  | 57.4 µM |  | > 100 µM |  | 34.9 µM |  | > 100 µM |  |
| Cc1cccc2c1NC(=O)[C@@]21[C@H](C(=O)c2ccccc2)[C@]2(C(=O)Nc3ccccc32)[C@H]2CCCN21 | 15000 nM | 63.4 µM | 26700 nM | > 100 µM | 46.5 µM | 47000 nM | > 100 µM | 33100 nM | > 100 µM | 17600 nM | > 100 µM | 15500 nM | > 100 µM | > 100000 nM | > 100 µM | 29200 nM | > 100 µM | 19500 nM | > 100 µM | 15.2 µM |
| COc1cc([C@@H]2c3cc4c(cc3[C@H](OC(C)=O)[C@H]3COC(=O)[C@H]23)OCO4)cc(OC)c1OC | 8430 nM | > 100 µM | 48.3 nM | > 100 µM |  | 53 nM | > 100 µM | 32.1 nM | > 100 µM | 80.8 nM | > 100 µM | 34 nM | > 100 µM | > 100000 nM | > 100 µM | 18 nM | 0.0722 µM | 31.2 nM | > 100 µM |  |
| O=C1/C=C/[C@@H](O)[C@@H]2C[C@@H](O)C[C@H]2/C=C/CCC[C@H](CO)O1 | 2370 nM | > 100 µM | 3660 nM | > 100 µM | 6.54 µM | 2250 nM | > 100 µM |  |  | 2980 nM | > 100 µM | 2200 nM | > 100 µM | 1680 nM | > 100 µM | 2670 nM | 7.74 µM | > 100000 nM | > 100 µM | 2.52 µM |
| COc1cc2c(=O)n(CCCn3ccnc3)c3c4cc5c(cc4ccc3c2cc1OC)OCO5 | 298 nM | 9.45 µM | 305 nM | 5.37 µM |  | 599 nM | > 100 µM | 669 nM | > 100 µM | 262 nM | > 100 µM | 344 nM | > 100 µM |  |  | 324 nM | 17.1 µM | 2330 nM | > 80.6 µM |  |
| O=S(=O)(NCCCNc1cc(-c2cn(-c3ccccc3)nc2-c2cccc(O)c2)ccn1)c1cccc2ccccc12 | 2350 nM | > 100 µM | 2450 nM | 12.9 µM | 12.4 µM | 2890 nM | > 100 µM | 614 nM | 4.48 µM | 2100 nM | 9.32 µM | 5620 nM | > 100 µM |  |  | 2320 nM | 5.66 µM | 1420 nM | 8.39 µM | 2.8 µM |
